# Assay results from PubChem BioAssay AID1996.
# Conditions: buffer; pH 7.4; 200.0 µM
row,SMILES,solubility kinetic [µg/mL]
1,O=S(=O)(NC1CCCCCCC1)c1ccccc1F,42.5
2,O=C(CCN1C(=O)c2ccccc2S1(=O)=O)Nc1ccccc1F,> 52.3
3,O=C1Cc2ccccc2C(=O)N1Cc1cccc(Cl)c1,12.2
4,CN(C)C(=O)O/N=C(\N)COc1ccc(C(C)(C)C)cc1,36
5,CC(C)C(=O)Nc1cc(S(=O)(=O)N2CCOCC2)ccc1N1CCCCC1,49
6,O=C(CCCn1cnc2ccccc2c1=O)Nc1ccccc1F,20.2
7,Cc1ccc(C(C)(c2ccc(N)cc2)c2ccc(N)cc2)cc1,10.3
8,CC1(C)CC(NCc2ccncc2)CC(C)(C)N1,32.2
9,Cc1cc(C)cc(NC(=O)CN2CCN(c3ccccn3)CC2)c1,2.8
10,O=C(Nc1ccc2ccccc2c1)c1ccc(Br)o1,4.9
11,O=C(CCNC(=O)c1ccco1)Nc1ccc(OC(F)F)cc1,43.6
12,CCc1ccc(S(=O)(=O)NCC(O)COc2ccc(OC)cc2)cc1 (stereo not drawn),51.9
13,N#Cc1c(CSCC(=O)O)cc(=O)n2c1[nH]c1ccccc12,46.9
14,O=S(=O)(c1ccc(F)cc1)n1cnc2ccccc21,28.4
15,CC(C)(C#N)NC(=O)C(=O)c1c(-c2ccccc2)cc2ccccn12,> 49.7
16,Nc1c(C(=O)[O-])sc2nc3c(cc12)CCCC3,23.2
17,Cc1cc(C(=O)COc2ccccc2C(N)=O)c(C)n1C,2.5
18,Cn1c(N)c(C(=O)COC(=O)Cc2ccc(Cl)c(Cl)c2)c(=O)n(C)c1=O,25.7
19,Cn1c(SCc2ccccc2Br)nc2ccccc2c1=O,0.4
20,Cn1c(SCC(=O)NC2CC2)nnc1-c1ccccc1,> 43.3
21,COc1cc2c(cc1OC)/C(=C/C(=O)c1ccc(F)cc1)NCC2,25.7
22,CC1CCCN(C(=O)c2ccc3c(c2)OCO3)C1 (stereo not drawn),> 37.1
23,CCCC(=O)Nc1nnc(SCC(=O)NC2CC2)s1,> 45.1
24,N#CCSc1nc2ccccc2c(=O)n1CCCC(=O)NCC1CCCO1 (stereo not drawn),47.7

row,SMILES,solubility kinetic [µg/mL]
1,O=S(=O)(c1ccc(Cl)cc1Cl)N1CCCC1c1cccnc1 (stereo not drawn),> 53.6
2,COC(=O)CC(NC(=O)c1cccs1)c1ccc(OC)c(OC)c1 (stereo not drawn),> 52.4
3,O=C(Nc1ccc(N2CCCCC2)cc1)c1ccc([N+](=O)[O-])o1,6.9
4,CCCn1cnc2scc(-c3ccc(C)c(C)c3)c2c1=O,1.1
5,COc1cccc(CN(C)S(=O)(=O)c2cccs2)c1,25.1
6,O=S(=O)(NCc1ccccc1)c1ccc(Br)s1,21.3
7,N#CC1=C(N)N(c2ccc(Cl)c(Cl)c2)C(=O)C1,> 40.2
8,CCOc1ccc(/C=N/OCC(=O)Nc2ccc3c(c2)OCO3)cc1,5.2
9,Cc1ccc(/C=C2\C(=O)NC(=S)N(c3ccc(F)cc3)C2=O)o1,45.9
10,CC1CCC(N2CCNCC2)CC1.Cl (stereo not drawn),> 32.8
11,O=C(CCc1nc(-c2ccccc2F)no1)Nc1cccnc1,> 46.8
12,COCCNC(=O)c1ccc2c(c1)CCN2S(C)(=O)=O,44.7
13,CCCCN(C(=O)c1cccs1)c1c(N)n(Cc2ccccc2)c(=O)[nH]c1=O,6.1
14,COc1ccc(/C=C/C(=O)N2CCOCC2)cc1OC,> 41.6
15,COc1ccc(C(C#N)=C2C=CC(=NO)C=C2)cc1,4.2
16,O=C(O)C(Cc1ccc(O)cc1)N1C(=O)c2ccccc2C1=O (stereo not drawn),> 46.7
17,Cc1cc(C)c2cc(C(=O)Nc3ccc(C)c(F)c3)[nH]c2c1,0.8
18,CCOc1ccc(S(=O)(=O)Nc2ccc(C(=O)NCC(c3ccc(OC)cc3)N3CCOCC3)cc2)cc1 (stereo not drawn),37.9
19,NC(=O)CSc1nccn1Cc1ccc(Cl)cc1,> 42.3
20,CCNc1nc(NCC)nc(NS(=O)(=O)c2ccc(N)cc2)n1,36.9
21,O=C(O)c1ccccc1C(=O)NCc1ccc2c(c1)OCO2,44.9
22,COc1ccc(C2(C)NC(=O)N(CC(=O)NC3(C#N)CCCCC3)C2=O)cc1 (stereo not drawn),> 57.7
23,COc1ccc(OCC(O)CNC(=O)Nc2cc(C)cc(C)c2)cc1 (stereo not drawn),3.8
24,Cc1cc(=O)[nH]c(SCC(=O)NC(C)C2CC3CCC2C3)c1C#N (stereo not drawn),> 51.8

row,SMILES,solubility kinetic [µg/mL]
1,CCOc1ccc(C(=O)NCC(=O)N2CCC(C)CC2)cc1OCC,> 52.3
2,CC(C)CC(=O)N1CCN(Cc2cccc(Cl)c2)CC1,24.8
3,Cc1cccc(NC(=O)CN(C)C(=O)c2ccc(N3CCCCCC3)c([N+](=O)[O-])c2)c1C,11.4
4,CCc1ccc(S(=O)(=O)NCc2cccnc2)cc1,31.8
5,CCc1ccc(NC(=O)NCc2cccnc2)cc1,> 38.3
6,Cc1nc(-c2ccccc2)sc1C(=O)/C=C/N(C)C,36.3
7,CN1CCCC(OC(=O)c2ccc(Cl)cc2)C1.Cl (stereo not drawn),41.5
8,COC(=O)c1cc(CSc2nc3ccccc3c(=O)n2C)oc1C,4.4
9,S=c1[nH]nc(-c2ccco2)n1-c1ccc(Cl)cc1,> 41.7
10,O=C(COC(=O)Cn1cnc2ccccc21)Nc1ccccc1C(F)(F)F,> 56.6
11,CCN(CC)c1ccc(Nc2nc(Cl)ncc2Br)cc1,12.8
12,COc1ccc(OC)c(NC(=O)N2CCc3ccccc3C2)c1,> 46.9
13,C[C@@H]1NC(=O)N(c2ccc(F)cc2)C1=O,31.1
14,Cc1ccc(N/C=C2\CCCCC2=O)nc1,31.6
15,Cc1c(Cl)cccc1NC(=O)Cn1c(-c2ccc(F)cc2)noc1=O,4
16,O=C(NCCO)C(=O)Nc1cc2c3c(c1)CCN3C(=O)CC2,> 45.5
17,O=S(=O)(NCCc1cccs1)c1ccc(Br)cc1,36.3
18,Cc1ccc(CC(=O)NCCc2ccc(S(N)(=O)=O)cc2)cc1,> 49.9
19,CC1=NN(c2nc3ccccc3[nH]2)C(=O)/C1=C/N(C)C,> 40.4
20,Cc1cc(NC(=O)Cn2cnc3sccc3c2=O)no1,7.8
21,Cc1c(C)n(C)c2ccc(C(=O)NCCN3CCOCC3)cc12,> 47.3
22,CN(C(=O)c1ccc(Br)o1)C1CCS(=O)(=O)C1 (stereo not drawn),> 48.3
23,COc1ccnc2c1c(=O)n(Cc1ccccc1Cl)c(=O)n2C,36
24,Cc1ccc(-c2csc3nc(C(C)C)oc(=O)c23)c(C)c1,3.9

row,SMILES,solubility kinetic [µg/mL]
1,C[C@H](NC(=O)c1ccccc1)C(=O)N1CCN(Cc2ccc3c(c2)OCO3)CC1,> 59.3
2,CC(=O)Nc1ccc(C2C(=O)c3ccccc3C2=O)cc1,39
3,Cc1[nH]c(=S)c(C#N)c(-c2ccco2)c1C(=O)N(C)C,> 43.1
4,C[C@H](NC(N)=O)C(=O)OCC(=O)NCc1cccs1,> 42.8
5,C/C(=N\NC(=O)CCC(=O)NCc1ccccc1)c1ccco1,> 47
6,CCN(CC)S(=O)(=O)c1ccc(NC(=O)c2ccc(N3CCCC3=O)cc2)cc1,5
7,CN1CCN(S(=O)(=O)c2ccc3c(c2)oc(=O)n3C)CC1,> 46.7
8,COc1ccc(C(CNC(=O)c2cccc(S(=O)(=O)N3CCc4ccccc43)c2)N(C)C)cc1 (stereo not drawn),39.3
9,O=C(COC(=O)/C=C/c1ccc(S(=O)(=O)N2CCOCC2)cc1)Nc1ccccc1F,12.5
10,CN1C(=O)c2cccc3c(S(=O)(=O)NCCc4ccccc4)ccc1c23,< 0.4
11,O=C(COC(=O)c1ccc(Cl)c(S(=O)(=O)N2CCCC2)c1)NCc1ccccc1,26.1
12,CC(=O)c1sc(-c2ccc(F)cc2F)nc1C,0.8
13,COCCn1c(/C=C/c2ccccc2)nc2ccccc21,> 41.8
14,O=C1Nc2ccccc2C1c1ncc(C(F)(F)F)cc1Cl (stereo not drawn),> 46.9
15,CCN(CC(=O)Nc1ccccc1OC)C(=O)CC1CC2CCC1C2 (stereo not drawn),> 51.7
16,CC(C)CC(=O)NC(=S)Nc1ccccc1N1CCCC1,4
17,COC(=O)Cc1ccc(NC(=S)NCCO)cc1,39.3
18,O=C(OCCN1C(=O)c2ccccc2C1=O)[C@@H]1CC(O)CN1S(=O)(=O)c1ccccc1[N+](=O)[O-] (stereo partly drawn),> 73.4
19,Clc1ccc(-c2csc(N3CCCCCC3)n2)cc1,< 0.3
20,O=c1cc(CN2CCOCC2)c2cc(Cl)ccc2o1,> 42
21,COc1ccc(-c2cc(C(=O)N3CCCCCC3)no2)cc1,4
22,COc1ccccc1CC(=O)Nc1cccc2ccccc12,2.5
23,CN(C)C(CNc1ncccn1)c1ccccc1 (stereo not drawn),32.6
24,CNc1nc(-c2ccccc2)cc(-c2ccccc2)n1,1.4

row,SMILES,solubility kinetic [µg/mL]
1,O=C(Nc1ncccc1O)c1ccc2c(c1)OCO2,> 38.7
2,CCOC(=O)C1CCN(C(=O)/C=C/c2ccc3c(c2)OCO3)CC1,> 49.7
3,CCOc1ccc(NC(C)=O)cc1[N+](=O)[O-],> 33.6
4,O=c1c2oc3ccccc3c2ncn1Cc1ccc(F)cc1,0.8
5,O=C(/C=C/c1cccc([N+](=O)[O-])c1)OCC(=O)c1ccccc1,< 0.7
6,Nc1ncc([N+](=O)[O-])c(Oc2ccccc2F)n1,> 37.5
7,Cc1cc(C)c2c(c1)N[C@H](c1cccs1)[C@@H]1CCO[C@H]21,1.7
8,Cc1ccc(C(=O)NCCCNC(=O)c2ccccc2F)cn1,44.1
9,COc1cc(C2NC(=O)NC(C)=C2[N+](=O)[O-])cc(OC)c1OC (stereo not drawn),47.3
10,CC(=O)Nc1ccc(S(=O)(=O)NCc2ccc(C)n2C)cc1,> 48.2
11,O=C(CSc1ccccc1)NCCCc1ccccc1,> 42.8
12,CN(Cc1ccccc1)S(=O)(=O)c1ccc(NC(=O)c2ccccc2C(=O)O)cc1,61.7
13,O=C(NC1CCN(c2ncccn2)CC1)c1ccccc1F,39.7
14,CC(=O)Nc1ccc(OCC(=O)NCc2ccc(C)cc2)cc1,> 46.9
15,O=S(=O)(c1ccc(Cl)nc1)N1CCCC1,> 37
16,CN(C)/C=C(\c1cnc(Cl)s1)S(=O)(=O)c1ccccc1,43.8
17,O=[N+]([O-])c1ccc(O)c(C=Nc2cccc3ccccc23)c1,24.6
18,O=C(NC1CCCCCCC1)c1cccs1,22.5
19,CN(C)CCCNC(NC(=O)/C=C/c1ccccc1)C(Cl)(Cl)Cl (stereo not drawn),44.3
20,O=C1[C@@H]2C(c3ccc(F)cc3)=NO[C@@H]2C(=O)N1Cc1ccccc1,7.8
21,O=C1CN(C(=O)COC(=O)Cc2ccccc2F)c2ccccc2N1,> 51.3
22,C[n+]1ccn(CC(=O)c2cccs2)c1.[Br-],39
